Measurements reported in US20260049076A1, “Tertiary Amine Substituted Bicyclic Compounds Useful as T Cell Activators” (BRISTOL-MYERS SQUIBB COMPANY, priority 2022, published 2026).

How the values were obtained:
human DGKα = molecular target: T1, human DGKα (Homo sapiens, UniProt P23743); assay: In vitro DGK inhibition assay, DGKα liposome (LIPGLO) assay; assay type: biochemical; settings: read-out: Enzyme Inhibition DGKalpha IC50
T1 construct: TVMV protease cleavage site (C); Hexa-His (C); made in house; host or cells: Sf9 insect cells (baculovirus)
T1 sequence (P23743 with tags, fused parts or gaps): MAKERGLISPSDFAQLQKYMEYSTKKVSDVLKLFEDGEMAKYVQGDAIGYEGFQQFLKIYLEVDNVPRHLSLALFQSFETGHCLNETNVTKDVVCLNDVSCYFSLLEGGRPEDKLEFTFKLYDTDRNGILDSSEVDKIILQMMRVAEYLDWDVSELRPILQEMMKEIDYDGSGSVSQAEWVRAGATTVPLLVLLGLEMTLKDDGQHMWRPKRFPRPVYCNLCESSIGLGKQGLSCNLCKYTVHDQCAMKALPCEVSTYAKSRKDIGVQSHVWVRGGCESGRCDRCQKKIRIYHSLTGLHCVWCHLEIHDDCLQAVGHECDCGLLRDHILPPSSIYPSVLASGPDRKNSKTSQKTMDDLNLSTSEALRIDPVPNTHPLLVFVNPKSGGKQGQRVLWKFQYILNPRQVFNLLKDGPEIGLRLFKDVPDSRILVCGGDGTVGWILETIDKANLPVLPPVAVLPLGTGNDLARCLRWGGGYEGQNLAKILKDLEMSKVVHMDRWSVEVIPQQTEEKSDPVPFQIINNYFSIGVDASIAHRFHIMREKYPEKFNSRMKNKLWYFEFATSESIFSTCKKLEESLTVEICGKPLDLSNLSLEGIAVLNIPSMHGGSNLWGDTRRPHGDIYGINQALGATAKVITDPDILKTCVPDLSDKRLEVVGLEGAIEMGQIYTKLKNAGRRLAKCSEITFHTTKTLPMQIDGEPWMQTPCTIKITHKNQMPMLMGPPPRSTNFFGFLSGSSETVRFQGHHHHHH
Experimental: (§1) The DGKα and DGKζ reactions were performed using either extruded liposome (DGKα and DGKζ LIPGLO assays) or detergent/lipid micelle substrate (DGKα and DGKζ assays). The reactions were carried out in 50 mM MOPS pH 7.5, 100 mM NaCl, 10 mM MgCl2, 1 μM CaCl2, and 1 mM DTT (assay buffer). The reactions using a detergent/lipid micelle substrate also contained 50 mM octyl B-D-glucopyranoside. The lipid substrate concentrations were 11 mM PS and 1 mM DAG for the detergent/lipid micelle reactions. The lipid substrate concentrations were 2 mM PS, 0.25 mM DAG, and 2.75 mM PC for the extruded liposome reactions (5 mM total lipid). The reactions were carried out in 150 μM ATP The enzyme concentrations for the DGKα and DGKζ were 5 nM
(§2) The compound inhibition studies were carried out as follows: 25 nL (ADPGLO assay) or 50 nL (LIPGLO assay) droplets of each test compound (top concentration 10 mM with 11 point, 3-fold dilution series for each compound) solubilized in DMSO were transferred to wells of a white 1536 well plate (Corning 3725). A 5 mL enzyme/lipid substrate solution at 2× final reaction concentration was prepared by combining 2.5 mL 4× enzyme solution (20 nM DGKα, or DGKζ (prepared as described below) in assay buffer) and 2.5 mL of either 4× liposome or 4× detergent/lipid micelle solution (compositions described below) and incubated at room temperature for 10 minutes. Next, 1 μL 2× enzyme/lipid substrate solution was added to wells containing the test compound and reactions were initiated with the addition of 1 μL 300 uM ATP. The reactions were allowed to proceed for 2 hr (ADPGLO assay) or 1 hr (LIPGLO assay), after which 2 μL Glo Reagent (Promega V9101) was added and incubated for 40 minutes. Next, 4 μL Kinase Detection Reagent was added and incubated for 30 minutes. Luminescence was recorded using an EnVision microplate reader. […] The compounds were evaluated at 11 concentrations to determine IC50.
(§3) The lipid composition was 5 mol % DAG (Avanti 8008110), 40 mol % PS (Avanti 840035P), and 55 mol % PC (Avanti 850457) at a total lipid concentration of 7-8 mg/mL for the liposome solution. The PC, DAG, and PS were dissolved in chloroform, combined, and dried in vacuo to a thin film. The lipids were hydrated to 20 mM in 50 mM MOPS pH 7.5, 100 mM NaCl, 5 mM MgCl2, and were freeze-thawed five times. The lipid suspension was extruded through a 100 nm polycarbonate filter 10-12 times. […] The liposome preparation was stored at 4° C. for as long as four weeks.
as §3, with “15.2” for “7-8”, “the 4×” for “the”, “eleven” for “10-12”
(§4) Human DGK-alpha-TVMV-His-pFBgate and human DGK-zeta-transcript variant-2-TVMV-His-pFBgate baculovirus samples were generated using the Bac-to-Bac baculovirus expression system (Invitrogen) according to the manufacturer's protocol. […] Baculovirus amplification was achieved using infected Sf9 cells at 1:1500 virus/cell ratios, and grown for 65 hours at 27° C. post-transfection.
(§5) The expression scale up for each protein was carried out in the Cellbag 50L WAVE-Bioreactor System 20/50 from GE Healthcare Bioscience. 12 L of 2×10^6 cells/mL Sf9 cells (Expression System, Davis, CA) grown in ESF921 insect medium (Expression System) were infected with virus stock at 1:200 virus/cell ratios, and grown for 66-68 hours at 27° C. post-infection.

human DGKζ = molecular target: T2, human DGKζ (Homo sapiens, UniProt Q13574); assay: In vitro DGK inhibition assay, DGKζ liposome (LIPGLO) assay; assay type: biochemical; settings: read-out: Enzyme Inhibition DGKzeta IC50
T2 construct: TVMV protease cleavage site (C); Hexa-His (C); made in house; host or cells: Sf9 insect cells (baculovirus)
T2 sequence (Q13574 with tags, fused parts or gaps isoform Q13574-4): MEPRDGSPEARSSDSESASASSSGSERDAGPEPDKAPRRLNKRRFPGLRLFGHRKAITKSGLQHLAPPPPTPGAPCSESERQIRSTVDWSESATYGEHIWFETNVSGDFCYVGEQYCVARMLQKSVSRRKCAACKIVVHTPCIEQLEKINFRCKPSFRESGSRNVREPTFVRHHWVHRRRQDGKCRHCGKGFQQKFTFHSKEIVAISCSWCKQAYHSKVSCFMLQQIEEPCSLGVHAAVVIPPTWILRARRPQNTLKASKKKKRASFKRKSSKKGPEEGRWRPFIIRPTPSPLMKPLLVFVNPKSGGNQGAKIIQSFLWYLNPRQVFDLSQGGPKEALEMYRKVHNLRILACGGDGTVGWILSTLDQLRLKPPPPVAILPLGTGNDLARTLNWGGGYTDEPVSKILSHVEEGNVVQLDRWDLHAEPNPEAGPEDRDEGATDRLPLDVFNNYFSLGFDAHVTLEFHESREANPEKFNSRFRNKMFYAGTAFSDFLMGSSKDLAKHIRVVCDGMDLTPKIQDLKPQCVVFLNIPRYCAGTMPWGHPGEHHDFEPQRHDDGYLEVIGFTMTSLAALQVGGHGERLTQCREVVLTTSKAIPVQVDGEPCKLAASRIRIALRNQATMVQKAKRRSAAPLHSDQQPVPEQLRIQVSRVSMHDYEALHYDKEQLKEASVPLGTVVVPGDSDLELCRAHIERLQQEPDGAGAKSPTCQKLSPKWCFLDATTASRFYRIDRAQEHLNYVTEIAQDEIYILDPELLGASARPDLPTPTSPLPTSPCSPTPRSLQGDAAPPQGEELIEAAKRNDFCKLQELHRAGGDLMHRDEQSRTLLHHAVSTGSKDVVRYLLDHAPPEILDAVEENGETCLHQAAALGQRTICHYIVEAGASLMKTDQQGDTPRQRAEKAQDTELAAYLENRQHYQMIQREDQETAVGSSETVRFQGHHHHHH
Experimental: as §1, §2, §3
as §3, with “15.2” for “7-8”, “the 4×” for “the”, “eleven” for “10-12”
as §4, §5

| SMILES | IC50 (human DGKα) [µM] | IC50 (human DGKζ) [µM] |
| --- | --- | --- |
| CN(c1nc(=O)n(C)c2ccc(Cl)nc12)C1CCCCC1 [Example 30, 6-chloro-4-(cyclohexyl(methyl)amino)-1-methylpyrido[3,2-d]pyrimidin-2(1H)-one] | 0.14 | 73 |
| CCCN(CC1CC1)c1nc(=O)n(C)c2ccc(Cl)nc12 [Example 31, 6-chloro-4-((cyclopropylmethyl)(propyl)amino)-1-methylpyrido[3,2-d]pyrimidin-2(1H)-one] | 1 | 32 |
| CN(c1ccc(C(F)(F)F)cc1)c1cc(=O)n(C)c2ccc(C#N)nc12 [Example 33, 5-methyl-8-(methyl(4-(trifluoromethyl)phenyl)amino)-6-oxo-5,6-dihydro-1,5-naphthyridine-2-carbonitrile] | 6.1 | 4.1 |
| CCN(c1ccc(OC)cc1)c1cc(=O)n(C)c2ccc(C#N)nc12 [Example 34, 8-(ethyl(4-methoxyphenyl)amino)-5-methyl-6-oxo-5,6-dihydro-1,5-naphthyridine-2-carbonitrile] | 6.5 | 2.5 |
| Cn1c(=O)cc(N(CC2CC2)c2ccc(F)cc2)c2nc(C#N)ccc21 [Example 35, 8-((cyclopropylmethyl)(4-fluorophenyl)amino)-5-methyl-6-oxo-5,6-dihydro-1,5-naphthyridine-2-carbonitrile] | 0.22 | 3 |
| COc1ccc(N(CC2CC2)c2cc(=O)n(C)c3ccc(C#N)nc23)cc1 [Example 36, 8-((cyclopropylmethyl)(4-methoxyphenyl)amino)-5-methyl-6-oxo-5,6-dihydro-1,5-naphthyridine-2-carbonitrile] | 0.89 | 0.8 |
| Cn1c(=O)cc(N(CC2CC2)c2ccc(C3CC3)cc2)c2nc(C#N)ccc21 [Example 40, 8-((cyclopropylmethyl)(4-cyclopropylphenyl)amino)-5-methyl-6-oxo-5,6-dihydro-1,5-naphthyridine-2-carbonitrile] | 2.7 | 0.19 |
| Cn1c(=O)cc(N(CC2CC2)c2ccc(OC(F)(F)F)cc2)c2nc(C#N)ccc21 [Example 41, 8-((cyclopropylmethyl)(4-(trifluoromethoxy)phenyl)amino)-5-methyl-6-oxo-5,6-dihydro-1,5-naphthyridine-2-carbonitrile] | 8.4 | 3 |
| Cn1c(=O)cc(N(CC2CC2)c2ccc(C(F)(F)F)cc2)c2nc(C#N)ccc21 [Example 42, 8-((cyclopropylmethyl)(4-(trifluoromethyl)phenyl)amino)-5-methyl-6-oxo-5,6-dihydro-1,5-naphthyridine-2-carbonitrile] | 4.4 | 1.1 |
| Cn1c(=O)cc(N(CC2CC2)c2cccc(OC(F)(F)F)c2)c2nc(C#N)ccc21 [Example 43, 8-((cyclopropylmethyl)(3-(trifluoromethoxy)phenyl)amino)-5-methyl-6-oxo-5,6-dihydro-1,5-naphthyridine-2-carbonitrile] | 1.1 | 26 |
| Cn1c(=O)cc(N(CC2CC2)c2cccc(C(F)(F)F)c2)c2nc(C#N)ccc21 [Example 47, 8-((cyclopropylmethyl)(3-(trifluoromethyl)phenyl)amino)-5-methyl-6-oxo-5,6-dihydro-1,5-naphthyridine-2-carbonitrile] | 0.2 | 5.1 |
| Cc1ccccc1N(CC1CC1)c1cc(=O)n(C)c2ccc(C#N)nc12 [Example 49, 8-((cyclopropylmethyl)(o-tolyl)amino)-5-methyl-6-oxo-5,6-dihydro-1,5-naphthyridine-2-carbonitrile] | 4.8 | 56 |
| Cn1c(=O)cc(N(CC2CC2)c2ccc(OC(F)(F)F)cc2Cl)c2nc(C#N)ccc21 [Example 50, 8-((2-chloro-4-(trifluoromethoxy)phenyl)(cyclopropylmethyl)amino)-5-methyl-6-oxo-5,6-dihydro-1,5-naphthyridine-2-carbonitrile] | 4.8 | 2.5 |
